This experiment concerns the target Short transient receptor potential channel 6 (Mus musculus) (UniProt Q61143). Kind of experiment: TRPC6 inhibitor potency, dose response, cell-based, mouse TRPC6, HEK293, membrane potential (AID 2696). The settings on record: TRPC6-expressing HEK293 cells, membrane potential dye fluorescence, acetylcholine-stimulated.
Sequence of Short transient receptor potential channel 6 (Mus musculus) (Q61143 whole entry, looked up): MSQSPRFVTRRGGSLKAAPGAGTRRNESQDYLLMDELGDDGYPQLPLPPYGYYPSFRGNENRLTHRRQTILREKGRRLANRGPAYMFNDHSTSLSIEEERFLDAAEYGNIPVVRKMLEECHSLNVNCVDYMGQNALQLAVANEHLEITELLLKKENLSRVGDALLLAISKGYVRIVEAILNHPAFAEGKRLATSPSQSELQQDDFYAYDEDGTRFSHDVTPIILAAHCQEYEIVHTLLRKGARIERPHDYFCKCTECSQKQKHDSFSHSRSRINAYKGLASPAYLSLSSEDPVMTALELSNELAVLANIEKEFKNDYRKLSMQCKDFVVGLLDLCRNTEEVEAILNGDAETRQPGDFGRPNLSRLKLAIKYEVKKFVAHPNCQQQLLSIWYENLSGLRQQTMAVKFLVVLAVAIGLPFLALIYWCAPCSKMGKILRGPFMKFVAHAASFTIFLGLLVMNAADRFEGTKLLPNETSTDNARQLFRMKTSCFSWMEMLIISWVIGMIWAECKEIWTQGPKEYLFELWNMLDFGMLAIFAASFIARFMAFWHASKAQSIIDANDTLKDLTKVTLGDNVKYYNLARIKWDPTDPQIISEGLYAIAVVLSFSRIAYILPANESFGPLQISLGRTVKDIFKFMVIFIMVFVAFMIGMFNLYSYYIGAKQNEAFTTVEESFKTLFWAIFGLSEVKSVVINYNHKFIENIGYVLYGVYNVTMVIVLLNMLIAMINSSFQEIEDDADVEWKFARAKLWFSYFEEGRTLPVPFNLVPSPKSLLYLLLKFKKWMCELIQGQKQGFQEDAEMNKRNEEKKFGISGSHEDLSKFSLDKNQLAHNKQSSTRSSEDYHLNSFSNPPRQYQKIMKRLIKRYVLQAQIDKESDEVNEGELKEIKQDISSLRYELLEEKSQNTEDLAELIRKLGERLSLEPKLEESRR
For orientation: IC50 means the concentration needed to halve the response being measured. Regarding `CN(C)c1cc(NC(=O)CN2CCCC2)c2ccccc2n1`, the IC50 was 44.7 µM.
The same measure for `CN(C)CCOC1c2ccccc2CSc2ccccc21` (centres undefined): 12.6 µM; for `O=C(c1ccc(C(=O)N2CCCc3ccccc32)s1)N1CCCc2ccccc21`: 44.7 µM.
As to `CCOC(=O)N1CCN(S(=O)(=O)c2cc(Br)cnc2N)CC1`, the IC50 was 19.9 µM.
In the case of `Cc1nnc(SCCn2c(N3CCN(C)CC3)nc3c2c(=O)[nH]c(=O)n3C)s1`, the IC50 is 50.1 µM.
The same measure for `C/C(=N/OC(=O)c1c(-c2c(Cl)cccc2Cl)noc1C)c1cnccn1`: 31.6 µM; for `COc1cc(-c2nc3ccc(C)cn3c2Nc2ccc3c(c2)OCCO3)ccc1O`: 44.7 µM; for `Cc1c(C)n(Cc2ccccc2)c2ccc(C(=O)OCCCN(C)C)cc12`: 44.7 µM.
On to `COc1ccc(-n2nc(C(=O)c3cccs3)cc(-c3nc4ccccc4[nH]3)c2=N)cc1`, for which the IC50 is 50.1 µM.
In the case of `Cc1cccc2sc(N(CCCN(C)C)C(=O)c3ccc(Cl)s3)nc12`, the IC50 is 70.8 µM.
In the case of `Cc1ccc(OCCCCCCN2CCNCC2)cc1` it was 79.4 µM; in that of `COc1cc(/C=N/Nc2nncc3ccccc23)cc(OC)c1OC`, 44.7 µM; in that of `CCN(CC)CCCOC(=O)C(c1ccccc1)c1ccccc1`, 3.16 µM.
In the case of `CC(C)(C)NCc1cc(Br)ccc1OC1CCCC1`, the IC50 is 44.7 µM.
In the case of `O=C(OCCN1CCCC1)C1(c2ccccc2)CCCC1` it was 15.8 µM.
Take `CCCCCCn1c2c(c(=N)c3c1CCC3)CCC2`: the IC50 is 79.4 µM.
In the case of `CCOC(=O)c1ccc(NC(=O)CCc2ccc(CC)o2)cc1` it was 79.4 µM; in that of `COc1ccc(N2CCN(S(=O)(=O)CCNC(=O)COc3ccccc3C)CC2)cc1`, 39.8 µM; in that of `CN(C)CCC(=O)N1c2ccccc2Sc2ccc(Cl)cc21`, 8.91 µM.
`O=c1cc(C(F)(F)F)[nH]c2c(C(F)(F)F)cccc12`: the IC50 is 25.1 µM.
On to `COc1ccc2nc(C)cc(Nc3ccc(N4CCN(C)CC4)cc3)c2c1`, for which the IC50 is 79.4 µM.
Turning to `CCN(CC)CCOC(=O)C1c2ccccc2Oc2ccccc21`, the IC50 was 1.78 µM.
The same measure for `O=C(CSc1ncccn1)N1CCN(C(c2ccccc2)c2ccccc2)CC1`: 50.1 µM; for `OC(C#CCN1CCCCC1)(c1ccccc1)c1ccccc1`: 1.12 µM; for `CN1CCN(c2ncccc2S(=O)(=O)N2CCCCC2)CC1`: 11.2 µM.
The same measure for `O=C(c1ccccc1)N1CCN(C2C3CC4CC(C3)CC2C4)CC1` (centres undefined): 44.7 µM.
Regarding `Cc1cc(N2CCN(C)CC2)ccc1NC(=O)c1ccc(-c2ccc(Cl)cc2)o1`, the IC50 was 44.7 µM.
Consider `CCOC(=O)N1CCC(N2CCN(CCC(C)C)C(CCO)C2)CC1` (centres undefined), for which the IC50 is 14.1 µM.
On to `CC[N+](C)(CC)CCC(c1ccccc1)C1CCCCC1` (centres undefined), for which the IC50 was 4.47 µM.
For the compound `C=C(C)c1cccc(C(C)(C)NC(=O)NCCN(CC)CC)c1`, the IC50 was 28.2 µM.
In the case of `CCC(CO)(C(=O)OC1C[N+]2(C)CCC1CC2)c1ccccc1` (centres undefined) it was 1.58 µM.
In the case of `OC(CCN1CCCC1)(c1ccccc1)C1CCCCC1` (centres undefined) it was 4.47 µM; in that of `NCCCn1c(C(=O)c2ccc(Cl)cc2)c2ccc(C(F)(F)F)cc2[n+]1[O-]`, 44.7 µM; in that of `N#CC(c1cccc(Cl)c1)c1ccc2c(C(F)(F)F)cc(C(F)(F)F)nc2n1` (centres undefined), 31.6 µM.
Take `CN(CCOC(=O)C1c2ccccc2Oc2ccccc21)C(C)(C)C`: the IC50 is 0.89 µM.
In the case of `CN1CCCN=C1COC(=O)C(O)(c1ccccc1)C1CCCCC1` (centres undefined) it was 0.05 µM.
The same measure for `C[n+]1ccccc1/C=C/c1ccc(F)c(F)c1`: 44.7 µM; for `CN1CCC(OC(c2ccccc2)c2ccccc2)CC1`: 15.8 µM; for `CC(Cc1ccccc1Sc1ccc(O)cc1)N(C)C` (centres undefined): 31.6 µM.
The same measure for `Nc1nc(Nc2cccc(F)c2)nc2ccccc12`: 39.8 µM; for `CC(C)Cn1c(=O)c(C(=O)Nc2ccncc2)c(O)c2ccccc21`: 3.16 µM.
Consider `Cc1ccc(-c2cc(-c3ccc(C)cc3)[n+](-c3ccccc3)c(-c3ccc(C)cc3)c2)cc1`, for which the IC50 is 50.1 µM.
The same measure for `O=C(NC(Nc1nc2ccc([N+](=O)[O-])cc2s1)(C(F)(F)F)C(F)(F)F)c1ccccc1`: 8.91 µM; for `Cc1ccc(SC(=O)c2c([N+](=O)[O-])c(C)nn2C)cc1`: 35.5 µM.
`Cc1cc(Nc2cccc([N+](=O)[O-])c2)c2cccc(C)c2n1`: the IC50 was 44.7 µM.
`CCN1CCN(c2nc3ccccc3nc2C(C#N)C(=O)OCc2ccccc2)CC1` (centres undefined): the IC50 is 70.8 µM.
For `CCCC(CCC)C(=O)OC1C[C@H]2CC[C@@H](C1)[N+]2(C)C` (some centres undefined), the IC50 was 3.55 µM.
Take `CCOC(=O)c1ccc(NC(=O)CC2COc3ccccc3O2)cc1` (centres undefined): the IC50 is 63.1 µM.
For `C[N+]1(C)[C@@H]2CC[C@H]1CC(OC(=O)[C@@H](CO)c1ccccc1)C2` (some centres undefined), the IC50 was 0.02 µM.
The same measure for `Cc1ccccc1OCC(=O)NCCS(=O)(=O)N1CCN(c2ccc(F)cc2)CC1`: 44.7 µM.
The same measure for `C[N+]1(C)CCC(OC(=O)C(c2ccccc2)c2ccccc2)CC1`: 0.28 µM.
In the case of `N#CCCN(CCN1CCCC1)S(=O)(=O)c1ccc(-c2ccc([N+](=O)[O-])cc2)cc1` it was 63.1 µM; in that of `CN(CC#CC(O)(c1ccccc1)c1ccccc1)C(C)(C)C`, 12.6 µM; in that of `CN(C)CCCN1c2ccccc2Sc2ccc(C(F)(F)F)cc21`, 50.1 µM.
Regarding `O=[N+]([O-])c1cccc(OCCCN2CCC(Cc3ccccc3)CC2)c1`, the IC50 was 50.1 µM.
In the case of `CCN(CC)c1ccc2cc(C(N)=O)/c(=N\NC(=O)c3ccncc3)oc2c1` it was 50.1 µM.
With `CN(c1ccccc1)P(=O)(N(C)c1ccccc1)N(C)c1ccccc1`, the IC50 is 44.7 µM.
On to `CCN(CC)CC(=O)Nc1ccc(-c2nc3cc(NC(=O)CN(CC)CC)ccc3o2)cc1`, for which the IC50 is 79.4 µM.
As to `CC(Cc1ccccc1Sc1ccccc1O)N(C)C` (centres undefined), the IC50 is 39.8 µM.
The same measure for `CCCCCCCCCCCCn1ccc(=N)cc1`: 35.5 µM; for `C#CC[N+]1(C)[C@@H]2CC(OC(=O)C(CO)c3ccccc3)C[C@H]1C(O)C2` (some centres undefined): 3.55 µM.
The same measure for `Cc1ccc(OCCCCCCN2CCNCC2)c(Br)c1`: 79.4 µM.
Regarding `CC(C)(C)NCc1cc(Br)ccc1OCc1cccs1`, the IC50 was 70.8 µM.
In the case of `Cc1onc(-c2ccccc2)c1C(=O)N/N=C/c1ccc([N+](=O)[O-])s1`, the IC50 was 39.8 µM.
The same measure for `CN1CCN(C2=Nc3cc(Cl)ccc3Nc3ccccc32)CC1`: 15.8 µM; for `CC[n+]1c(/C=C/Nc2ccccc2)sc2ccccc21`: 79.4 µM.
For the compound `COC(=O)c1ccc(NC(=O)N2CCCC(C(=O)c3ccccc3OC)C2)cc1` (centres undefined), the IC50 is 79.4 µM.
As for `N=c1sccn1CC(=O)Nc1cc(Cl)ccc1Oc1ccccc1`, the IC50 was 44.7 µM.
In the case of `CCN(CC)CCNC(=O)c1nn(-c2ccc(C)cc2)c(=O)c2c1c1ccccc1n2C` it was 79.4 µM; in that of `CCN(CC)CCCNc1nc(-n2nc(C)cc2C)nc2sc3c(c12)CC(C)(C)OC3`, 22.4 µM; in that of `c1ccc(CNc2c3ccccc3nc3ccccc23)cc1`, 70.8 µM.
Regarding `COC(=O)c1[nH]c2ccc(Br)cc2c1NC(=O)CN1CCN(C2CCCCC2)CC1`, the IC50 was 44.7 µM.
In the case of `CN1[C@@H]2CC[C@H]1CC(OC(=O)C(CO)c1ccccc1)C2` (some centres undefined) it was 0.08 µM; in that of `Cc1nnsc1C(=O)N/N=C/c1ccc2ccccc2c1O`, 8.91 µM.
